Measured values published in PubChem BioAssay (NCI).
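Step 1: Grow cells in 96-well plates. Step 2: Expose to compound for 48 hours at 5 concentrations. Step 3: Interpolate endpoints linearly; if unreached, use highest concentration. TGI: total growth inhibition.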

How the values were obtained:
Assay in all cases: inhibition of tumour cell growth, NCI panel, 48 h
M14 melanoma = test system: M14 melanoma
NCI-H460 lung = test system: NCI-H460 lung
UO-31 renal = test system: UO-31 renal
KM12 colon = test system: KM12 colon
HCT-15 colon = test system: HCT-15 colon
EKVX NSCLC = test system: EKVX NSCLC
K-562 leukemia = test system: K-562 leukemia
CCRF-CEM leukemia = test system: CCRF-CEM leukemia
DLD-1 colon = test system: DLD-1 colon
M19-MEL melanoma = test system: M19-MEL melanoma
SK-MEL-2 melanoma = test system: SK-MEL-2 melanoma
NCI-H522 lung = test system: NCI-H522 lung
IGROV1 ovarian = test system: IGROV1 ovarian
HOP-92 NSCLC = test system: HOP-92 NSCLC
SR leukemia = test system: SR leukemia
A549 NSCLC = test system: A549 NSCLC
OVCAR-4 ovarian = test system: OVCAR-4 ovarian
SN12C renal = test system: SN12C renal
HT29 colon = test system: HT29 colon
SF-268 CNS = test system: SF-268 CNS
MALME-3M melanoma = test system: MALME-3M melanoma
DMS 114 small cell lung = test system: DMS 114 small cell lung
RPMI-8226 leukemia = test system: RPMI-8226 leukemia
SK-MEL-5 melanoma = test system: SK-MEL-5 melanoma
UACC-62 melanoma = test system: UACC-62 melanoma
LOX IMVI melanoma = test system: LOX IMVI melanoma
SK-OV-3 ovarian = test system: SK-OV-3 ovarian
NCI-H226 lung = test system: NCI-H226 lung
HOP-62 NSCLC = test system: HOP-62 NSCLC
OVCAR-8 ovarian = test system: OVCAR-8 ovarian
SF-539 CNS = test system: SF-539 CNS
COLO 205 colon = test system: COLO 205 colon
OVCAR-5 ovarian = test system: OVCAR-5 ovarian
LXFL 529 NSCLC = test system: LXFL 529 NSCLC
CAKI-1 renal = test system: CAKI-1 renal
OVCAR-3 ovarian = test system: OVCAR-3 ovarian
786-0 renal = test system: 786-0 renal
ACHN renal = test system: ACHN renal
SW-620 colon = test system: SW-620 colon
HL-60(TB) leukemia = test system: HL-60(TB) leukemia
SF-295 CNS = test system: SF-295 CNS
HCT-116 colon = test system: HCT-116 colon
MOLT-4 leukemia = test system: MOLT-4 leukemia
UACC-257 melanoma = test system: UACC-257 melanoma
RXF 393 renal = test system: RXF 393 renal
MDA-MB-435 = test system: MDA-MB-435
NCI-H23 lung = test system: NCI-H23 lung
PC-3 prostate = test system: PC-3 prostate
MDA-MB-231 breast = test system: MDA-MB-231 breast
SNB-75 CNS = test system: SNB-75 CNS
HS 578T breast = test system: HS 578T breast
HCC-2998 colon = test system: HCC-2998 colon
MDA-N = test system: MDA-N
TK-10 renal = test system: TK-10 renal
U251 CNS = test system: U251 CNS
SNB-19 CNS = test system: SNB-19 CNS
MCF7 breast = test system: MCF7 breast
DU-145 prostate = test system: DU-145 prostate
BT-549 breast = test system: BT-549 breast
T-47D breast = test system: T-47D breast
SK-MEL-28 melanoma = test system: SK-MEL-28 melanoma
A498 renal = test system: A498 renal
NCI/ADR-RES ovarian = test system: NCI/ADR-RES ovarian

Measured: TGI

CC1CC2C(=O)N(c3ccccc3)C(=O)C2c2c1c1ccccc1n2Cc1ccccc1 (stereo not given)
92.3 µM: NCI-H522 lung
not listed: UACC-257 melanoma | RXF 393 renal | MDA-MB-435 | NCI-H23 lung | PC-3 prostate | MDA-MB-231 breast | SNB-75 CNS | HS 578T breast | HCC-2998 colon | MDA-N | TK-10 renal | U251 CNS | SNB-19 CNS | MCF7 breast | DU-145 prostate | BT-549 breast | T-47D breast | SK-MEL-28 melanoma | A498 renal | NCI/ADR-RES ovarian
> 100 µM: all other assays above

O=c1[nH]/c(=C/c2ccc(OCc3ccccc3)cn2)c(=O)[nH]/c1=C/c1ccc(Cl)cc1
> 82.9 µM: TK-10 renal
0.796 µM: MDA-MB-435
> 52.4 µM: SF-268 CNS
0.723 µM: MDA-N
> 84.9 µM: NCI-H522 lung
25.2 µM: SNB-75 CNS
4.53 µM: SR leukemia
47.8 µM: HOP-62 NSCLC
2.45 µM: OVCAR-3 ovarian
> 40.2 µM: HL-60(TB) leukemia
29.4 µM: SF-295 CNS
2.68 µM: HS 578T breast
> 56.6 µM: CAKI-1 renal
7.53 µM: A498 renal
> 28.3 µM: RXF 393 renal
not listed: DLD-1 colon | M19-MEL melanoma | DMS 114 small cell lung | LXFL 529 NSCLC
> 100 µM: all other assays above

CCCCCCCCCCCCCCCCCCNc1ccn(C2OC(CO)C(O)C2O)c(=O)n1 (stereo not given)
> 49.7 µM: MOLT-4 leukemia
> 89.1 µM: PC-3 prostate
13.6 µM: HL-60(TB) leukemia
30.4 µM: CCRF-CEM leukemia
> 92.2 µM: IGROV1 ovarian
not listed: DLD-1 colon | M19-MEL melanoma | DMS 114 small cell lung | LXFL 529 NSCLC
> 100 µM: all other assays above

CC(=O)Oc1ccc2c(C)cc(=O)oc2c1
not listed: DLD-1 colon | M19-MEL melanoma | DMS 114 small cell lung | LXFL 529 NSCLC
> 100 µM: all other assays above
